Laboratory results: patent US8242145B2, “Cyclic diaryl ether compounds as antagonists of prostaglandin D2 receptors” (Panmira Pharmaceuticals, LLC, priority 2008, dated 2012)

Assays:
[1] = biological target: T1, human DP2 receptor (Homo sapiens, UniProt Q9Y5Y4); test: DP2/CRTH2 radioligand binding assay using [3H]PGD2; conditions: hDP2 (CRTH2) binding assay
T1 construct: expressed in transfected cells
T1 sequence (Q9Y5Y4 1-395): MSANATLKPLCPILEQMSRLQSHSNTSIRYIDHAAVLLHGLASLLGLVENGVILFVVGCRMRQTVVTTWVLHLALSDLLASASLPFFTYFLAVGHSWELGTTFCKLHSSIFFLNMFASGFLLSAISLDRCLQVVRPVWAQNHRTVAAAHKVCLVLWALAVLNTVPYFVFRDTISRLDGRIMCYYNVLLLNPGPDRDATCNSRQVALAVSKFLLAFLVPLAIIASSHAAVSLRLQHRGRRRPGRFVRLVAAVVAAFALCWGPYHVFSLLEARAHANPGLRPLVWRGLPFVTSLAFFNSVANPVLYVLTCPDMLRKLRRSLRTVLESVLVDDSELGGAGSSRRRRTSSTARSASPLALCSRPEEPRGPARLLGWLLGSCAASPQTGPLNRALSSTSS
How it was run: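 HEK293 membranes with stable recombinant human DP2, incubated with 1 nM [3H]PGD2 and compound 60 min at room temperature in pH 7.4 HEPES/MnCl2/EDTA buffer, with or without 0.2% human serum albumin.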

[2] = biological target: T2, recombinant human CRTH2 receptor (Homo sapiens, UniProt Q9Y5Y4); test: GTPγS binding assay; assay type: biochemical; conditions: +HSA; read-out: hDP2 GTPγS μM (+HSA)
T2 construct: expressed in transfected cells
T2 sequence (Q9Y5Y4 1-395): T1 sequence (Q9Y5Y4 1-395)
Procedure: The ability of a compound to inhibit binding of GTP to DP2 is assessed via a membrane GTPγS assay. CHO cells stably expressing the recombinant human CRTH2 receptor are resuspended in 10 mM Hepes, 7.4 containing 1 mM DTT, lysed and centrifuged at 75,000×g to pellet the membranes. The membranes are resuspended in 10 mM Hepes, 7.4 containing 1 mM DTT and 10% glycerol. Membranes (˜12.5 μg per well) are incubated in 96-well plates with 0.05 nM [^35S]-GTPγS, 80 nM PGD2, 5 μM GDP, and test compound in Assay Buffer (50 mM Hepes, pH 7.4, 100 mM NaCl, 5 mM MgCl2 and 0.2% human serum albumin) for 60 minutes at 30° C. The reactions are terminated by rapid filtration through Whatman GF/B glass fibre filter plates. The filter plates are washed 3 times with 1 ml cold Assay Buffer and dried. Scintillant is then added to the plates and the radioactivity retained on the filters is determined on a Packard TopCount (Perkin Elmer). Specific binding is determined as total radioactive binding minus non-specific binding in the absence of the ligand (80 nM PGD2). IC50s were determined using Graphpad prism analysis of drug titration curves.

[3] = biological target: T3, human DP1 receptor (Homo sapiens, UniProt Q13258); test: DP1 radioligand binding assay using [3H]BWA868C; conditions: hDP1 binding
T3 construct: tissue Biological Specialty Corporation; host or cells: human platelets, membranes
T3 sequence (Q13258 1-359): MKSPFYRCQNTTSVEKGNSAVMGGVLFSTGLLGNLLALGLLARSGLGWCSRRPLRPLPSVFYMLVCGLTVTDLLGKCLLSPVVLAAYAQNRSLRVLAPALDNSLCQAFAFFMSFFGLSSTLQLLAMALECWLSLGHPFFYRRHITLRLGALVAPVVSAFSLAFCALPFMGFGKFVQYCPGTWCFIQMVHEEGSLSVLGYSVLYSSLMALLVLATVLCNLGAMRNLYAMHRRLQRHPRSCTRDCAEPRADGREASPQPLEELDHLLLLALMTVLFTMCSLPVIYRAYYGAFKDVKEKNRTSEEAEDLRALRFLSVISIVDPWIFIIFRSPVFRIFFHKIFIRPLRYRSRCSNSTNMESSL
How it was run: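 Human platelet membranes (20 μg protein/well) incubated 60 min at room temperature with 2 nM [3H]BWA868C in 50 mM Hepes, 10 mM MnCl2, 1 mM EDTA, ±0.2% human serum albumin, pH 7.4. Bound label measured after filtration; nonspecific binding defined with 10 μM BW A868C. IC50 from titration curves.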

Compound	IC50 [1]	IC50 [2]	IC50 [3]
COc1ccc(CC(=O)O)cc1Oc1ccc(Cl)cc1CN1C(=O)O[C@H](c2ccccc2)[C@@H]1C [Compound 1-31, {3-[4-Chloro-2-((4S,5R)-4-methyl-2-oxo-5-phenyl-oxazolidin-3-ylmethyl)-phenoxy]-4-methoxy-phenyl}-acetic acid]	< 0.3 µM	< 0.3 µM	> 1 µM
COc1ccc(CC(=O)O)cc1Oc1ccc(C(F)(F)F)cc1CN1C(=O)O[C@H](c2ccccc2)[C@@H]1C [Compound 1-32, {4-Methoxy-3-[2-((4S,5R)-4-methyl-2-oxo-5-phenyl-oxazolidin-3-ylmethyl)-4-trifluoromethyl-phenoxy]-phenyl}-acetic acid]	< 0.3 µM	< 0.3 µM	> 1 µM
C[C@H]1[C@@H](c2ccccc2)OC(=O)N1Cc1cc(C(F)(F)F)ccc1Oc1cc(CC(=O)O)ccc1OCc1ccccc1 [Compound 1-33, {4-Benzyloxy-3-[2-((4S,5R)-4-methyl-2-oxo-5-phenyl-oxazolidin-3-ylmethyl)-4-trifluoromethyl-phenoxy]-phenyl}-acetic acid]	< 0.3 µM	< 0.3 µM	> 1 µM
COc1ccc(CC(=O)O)cc1Oc1ccc(S(C)(=O)=O)cc1CN1C(=O)O[C@H](c2ccccc2)[C@@H]1C [Compound 1-34, {3-[4-Methanesulfonyl-2-((4S,5R)-4-methyl-2-oxo-5-phenyl-oxazolidin-3-ylmethyl)-phenoxy]-4-methoxy-phenyl}-acetic acid]	0.3 to 1 µM	> 1 µM	> 1 µM
COc1ccc(CC(=O)O)cc1Oc1ccc(-c2ccccc2)cc1CN1C(=O)O[C@H](c2ccccc2)[C@@H]1C [Compound 1-35, {4-Methoxy-3-[3-((4S,5R)-4-methyl-2-oxo-5-phenyl-oxazolidin-3-ylmethyl)-biphenyl-4-yloxy]-phenyl}-acetic acid]	< 0.3 µM	> 1 µM	> 1 µM
COc1ccc(CC(=O)O)cc1Oc1ccc(-c2ccc(F)cc2)cc1CN1C(=O)O[C@H](c2ccccc2)[C@@H]1C [Compound 1-36, {3-[4′-Fluoro-3-((4S,5R)-4-methyl-2-oxo-5-phenyl-oxazolidin-3-ylmethyl)-biphenyl-4-yloxy]-4-methoxy-phenyl}-acetic acid]	< 0.3 µM	> 1 µM	> 1 µM
COc1ccc(CC(=O)O)cc1Oc1ccc(-c2ccccc2OC)cc1CN1C(=O)O[C@H](c2ccccc2)[C@@H]1C [Compound 1-37, {4-Methoxy-3-[2′-methoxy-3-((4S,5R)-4-methyl-2-oxo-5-phenyl-oxazolidin-3-ylmethyl)-biphenyl-4-yloxy]-phenyl}-acetic acid]	< 0.3 µM	< 0.3 µM	> 1 µM
COc1cccc(-c2ccc(Oc3cc(CC(=O)O)ccc3OC)c(CN3C(=O)O[C@H](c4ccccc4)[C@@H]3C)c2)c1 [Compound 1-38, {4-Methoxy-3-[3′-methoxy-3-((4S,5R)-4-methyl-2-oxo-5-phenyl-oxazolidin-3-ylmethyl)-biphenyl-4-yloxy]-phenyl}-acetic acid]	< 0.3 µM	0.3 to 1 µM	> 1 µM
COc1ccc(-c2ccc(Oc3cc(CC(=O)O)ccc3OC)c(CN3C(=O)O[C@H](c4ccccc4)[C@@H]3C)c2)cc1 [Compound 1-39, {4-Methoxy-3-[4′-methoxy-3-((4S,5R)-4-methyl-2-oxo-5-phenyl-oxazolidin-3-ylmethyl)-biphenyl-4-yloxy]-phenyl}-acetic acid]	< 0.3 µM	> 1 µM	> 1 µM
COc1ccc(CC(=O)O)cc1Oc1ccc(-c2cccnc2)cc1CN1C(=O)O[C@H](c2ccccc2)[C@@H]1C [Compound 1-40, {4-Methoxy-3-[2-((4S,5R)-4-methyl-2-oxo-5-phenyl-oxazolidin-3-ylmethyl)-4-pyridin-3-yl-phenoxy]-phenyl}-acetic acid]	< 0.3 µM	< 0.3 µM	> 1 µM
COc1ccc(CC(=O)O)cc1Oc1ccc(-c2ccncc2)cc1CN1C(=O)O[C@H](c2ccccc2)[C@@H]1C [Compound 1-41, {4-Methoxy-3-[2-((4S,5R)-4-methyl-2-oxo-5-phenyl-oxazolidin-3-ylmethyl)-4-pyridin-4-yl-phenoxy]-phenyl}-acetic acid]	< 0.3 µM	0.3 to 1 µM	> 1 µM
COc1ccc(CC(=O)O)cc1Oc1ccc(-c2cn[nH]c2)cc1CN1C(=O)O[C@H](c2ccccc2)[C@@H]1C [Compound 1-42, {4-Methoxy-3-[2-((4S,5R)-4-methyl-2-oxo-5-phenyl-oxazolidin-3-ylmethyl)-4-(1H-pyrazol-4-yl)-phenoxy]-phenyl}-acetic acid]	< 0.3 µM	< 0.3 µM	> 1 µM
COc1ccc(CC(=O)O)cc1Oc1ccc(-c2cnn(C)c2)cc1CN1C(=O)O[C@H](c2ccccc2)[C@@H]1C [Compound 1-43, {4-Methoxy-3-[2-((4S,5R)-4-methyl-2-oxo-5-phenyl-oxazolidin-3-ylmethyl)-4-(1-methyl-1H-pyrazol-4-yl)-phenoxy]-phenyl}-acetic acid]	< 0.3 µM	0.3 to 1 µM	> 1 µM
COc1ccc(C(C)C(=O)O)cc1Oc1ccc(C(F)(F)F)cc1CN1C(=O)O[C@H](c2ccccc2)[C@@H]1C (stereo partly drawn) [Compound 1-44, 2-{4-Methoxy-3-[2-((4S,5R)-4-methyl-2-oxo-5-phenyl-oxazolidin-3-ylmethyl)-4-trifluoromethyl-phenoxy]-phenyl}-propionic acid]	< 0.3 µM	0.3 to 1 µM	> 1 µM
O=C(O)Cc1cccc(Oc2ccc(Br)cc2CN2C(=O)OC[C@@H]2c2ccccc2)c1 [Compound 1-45, {3-[4-Bromo-2-((S)-2-oxo-4-phenyl-oxazolidin-3-ylmethyl)-phenoxy]-phenyl}-acetic acid]	< 0.3 µM	< 0.3 µM	> 1 µM
O=C(O)Cc1cccc(Oc2ccc(Br)cc2CN2C(=O)OC[C@@H]2Cc2ccccc2)c1 [Compound 1-46, {3-[2-((S)-4-Benzyl-2-oxo-oxazolidin-3-ylmethyl)-4-bromo-phenoxy]-phenyl}-acetic acid]	< 0.3 µM	< 0.3 µM	> 1 µM
O=C(O)Cc1cccc(Oc2ccc(Br)cc2CN2C[C@@H](c3ccccc3)OC2=O)c1 [Compound 1-47, {3-[4-Bromo-2-((R)-2-oxo-5-phenyl-oxazolidin-3-ylmethyl)-phenoxy]-phenyl}-acetic acid]	< 0.3 µM	< 0.3 µM	0.3 to 1 µM
O=C(O)Cc1cccc(Oc2ccc(Br)cc2CN2C[C@H](c3ccccc3)OC2=O)c1 [Compound 1-48, {3-[4-Bromo-2-((S)-2-oxo-5-phenyl-oxazolidin-3-ylmethyl)-phenoxy]-phenyl}-acetic acid]	< 0.3 µM	> 1 µM	0.3 to 1 µM
C[C@@H]1[C@H](c2ccccc2)OC(=O)N1Cc1cc(Br)ccc1Oc1cccc(CC(=O)O)c1 [Compound 1-49, {3-[4-Bromo-2-((4R,5S)-4-methyl-2-oxo-5-phenyl-oxazolidin-3-ylmethyl)-phenoxy]-phenyl}-acetic acid]	< 0.3 µM	< 0.3 µM	< 0.3 µM
C[C@@H]1[C@H](c2ccc(Cl)cc2)OC(=O)N1Cc1cc(Br)ccc1Oc1cccc(CC(=O)O)c1 [Compound 1-50, (3-{4-Bromo-2-[(4R,5S)-5-(4-chloro-phenyl)-4-methyl-2-oxo-oxazolidin-3-ylmethyl]-phenoxy}-phenyl)-acetic acid]	< 0.3 µM	0.3 to 1 µM	0.3 to 1 µM
